Data taken from patent publication US8871753B2, “Macrocyclic compounds and their use as kinase inhibitors” (Incyte Corporation, priority 2008, dated 2014).
Counter-ions that a name gives are not always drawn.

How the values were obtained:
Format in all cases: biochemical
[1] = target: T1, human JAK1 (a.a. 837-1142) (Homo sapiens, UniProt P23458); experiment: In vitro JAK kinase assay (HTRF, phosphorylation of a biotinylated peptide), JAK1; settings: Table B1; read-out: JAK1 IC50
T1 construct: human JAK1 (a.a. 837-1142); His tag (N); made in house; host or cells: insect cells (baculovirus)
T1 sequence (P23458 849-1154): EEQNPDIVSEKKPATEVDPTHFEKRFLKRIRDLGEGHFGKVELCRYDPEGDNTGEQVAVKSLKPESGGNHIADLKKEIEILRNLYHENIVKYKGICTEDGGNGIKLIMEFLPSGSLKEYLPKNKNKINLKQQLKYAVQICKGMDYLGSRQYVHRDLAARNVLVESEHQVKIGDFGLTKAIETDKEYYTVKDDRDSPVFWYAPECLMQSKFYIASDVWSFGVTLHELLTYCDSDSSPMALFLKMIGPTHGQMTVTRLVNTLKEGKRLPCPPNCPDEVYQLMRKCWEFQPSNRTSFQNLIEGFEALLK
In short: (§1)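 Kinase activity was measured as phosphorylation of a biotinylated peptide, with ATP at 90 μM for JAK1, 30 μM for JAK2 and 3 μM for JAK3. Reactions ran 1 hr at room temperature, were stopped with EDTA plus SA-APC and Eu-Py20, and were read by HTRF after 40 minutes of antibody binding.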

[2] = target: T2, human JAK3 (a.a. 781-1124) (Homo sapiens, UniProt P52333); experiment: In vitro JAK kinase assay (HTRF, phosphorylation of a biotinylated peptide), JAK3; settings: Table B1
T2 construct: JAK3 (a.a. 781-1124); His tag (N); made in house; host or cells: insect cells (baculovirus)
T2 sequence (P52333 781-1124): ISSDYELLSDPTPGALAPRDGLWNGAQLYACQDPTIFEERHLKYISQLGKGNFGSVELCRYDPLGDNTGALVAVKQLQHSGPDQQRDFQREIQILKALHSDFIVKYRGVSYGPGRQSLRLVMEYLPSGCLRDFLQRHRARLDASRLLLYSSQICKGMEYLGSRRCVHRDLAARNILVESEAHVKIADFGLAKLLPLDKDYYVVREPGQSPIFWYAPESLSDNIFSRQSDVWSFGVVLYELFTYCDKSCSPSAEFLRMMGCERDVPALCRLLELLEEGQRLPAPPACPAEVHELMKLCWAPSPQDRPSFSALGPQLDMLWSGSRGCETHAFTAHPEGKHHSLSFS
In short: as §1

TYK2 = TYK2 (Homo sapiens, UniProt P29597); experiment: TYK2 kinase inhibition (Table A1); settings: Table B1
Chain of TYK2 (P29597 whole entry): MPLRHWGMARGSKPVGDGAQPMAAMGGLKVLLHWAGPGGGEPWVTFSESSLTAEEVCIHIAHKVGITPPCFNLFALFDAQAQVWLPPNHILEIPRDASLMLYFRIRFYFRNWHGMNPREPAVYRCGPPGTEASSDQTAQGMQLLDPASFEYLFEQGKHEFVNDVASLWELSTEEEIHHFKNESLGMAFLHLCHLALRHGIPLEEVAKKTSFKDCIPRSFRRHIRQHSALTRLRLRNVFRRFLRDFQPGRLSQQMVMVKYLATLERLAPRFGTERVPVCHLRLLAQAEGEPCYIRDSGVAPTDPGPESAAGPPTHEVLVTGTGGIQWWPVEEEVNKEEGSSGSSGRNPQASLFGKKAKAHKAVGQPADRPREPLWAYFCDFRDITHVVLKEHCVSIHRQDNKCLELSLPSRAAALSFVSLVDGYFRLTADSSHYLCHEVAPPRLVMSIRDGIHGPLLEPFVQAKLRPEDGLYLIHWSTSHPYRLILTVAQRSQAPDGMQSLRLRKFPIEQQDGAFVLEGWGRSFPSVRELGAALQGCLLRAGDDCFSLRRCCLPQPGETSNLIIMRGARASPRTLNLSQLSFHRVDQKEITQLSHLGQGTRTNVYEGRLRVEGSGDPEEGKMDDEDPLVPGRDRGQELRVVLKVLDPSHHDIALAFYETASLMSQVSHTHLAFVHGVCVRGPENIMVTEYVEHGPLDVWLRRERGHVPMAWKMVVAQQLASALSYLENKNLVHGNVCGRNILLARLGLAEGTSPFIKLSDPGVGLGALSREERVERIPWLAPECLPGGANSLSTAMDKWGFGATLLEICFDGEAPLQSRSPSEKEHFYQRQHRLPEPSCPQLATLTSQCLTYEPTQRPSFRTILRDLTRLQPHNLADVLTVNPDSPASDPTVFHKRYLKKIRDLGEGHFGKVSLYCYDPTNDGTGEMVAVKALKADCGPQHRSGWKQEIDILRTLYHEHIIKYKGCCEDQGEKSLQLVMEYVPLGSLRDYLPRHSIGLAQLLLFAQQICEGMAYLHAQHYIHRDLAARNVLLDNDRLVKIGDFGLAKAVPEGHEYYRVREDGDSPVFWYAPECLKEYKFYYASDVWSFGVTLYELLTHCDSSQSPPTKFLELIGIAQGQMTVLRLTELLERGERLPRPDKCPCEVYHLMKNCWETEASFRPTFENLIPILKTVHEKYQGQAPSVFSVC

[3] = target: T3, human JAK2 (a.a. 828-1132) (Homo sapiens, UniProt O60674); experiment: In vitro JAK kinase assay (HTRF, phosphorylation of a biotinylated peptide), JAK2; settings: Table B1
T3 construct: JAK2 (a.a. 828-1132); His tag (N); made in house; host or cells: insect cells (baculovirus)
T3 sequence (O60674 828-1132): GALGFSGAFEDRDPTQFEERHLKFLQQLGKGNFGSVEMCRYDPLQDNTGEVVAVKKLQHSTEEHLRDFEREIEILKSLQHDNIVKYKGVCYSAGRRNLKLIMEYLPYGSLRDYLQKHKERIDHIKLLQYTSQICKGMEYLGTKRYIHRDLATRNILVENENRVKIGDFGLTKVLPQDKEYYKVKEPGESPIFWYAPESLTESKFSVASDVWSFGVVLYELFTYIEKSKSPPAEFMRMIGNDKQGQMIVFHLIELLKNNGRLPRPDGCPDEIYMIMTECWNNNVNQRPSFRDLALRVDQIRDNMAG
In short: as §1

[4] = target: T4, Recombinant Human Anaplastic Lymphoma Kinase (Homo sapiens, UniProt Q9UM73); experiment: ALK HTRF kinase assay; settings: compound at a concentration of 500 nM or 1 mM (not specified); cells shown as percentage
T4 construct: purchased Invitrogen, Carlsbad, Calif
T4 sequence (Q9UM73 19-1620): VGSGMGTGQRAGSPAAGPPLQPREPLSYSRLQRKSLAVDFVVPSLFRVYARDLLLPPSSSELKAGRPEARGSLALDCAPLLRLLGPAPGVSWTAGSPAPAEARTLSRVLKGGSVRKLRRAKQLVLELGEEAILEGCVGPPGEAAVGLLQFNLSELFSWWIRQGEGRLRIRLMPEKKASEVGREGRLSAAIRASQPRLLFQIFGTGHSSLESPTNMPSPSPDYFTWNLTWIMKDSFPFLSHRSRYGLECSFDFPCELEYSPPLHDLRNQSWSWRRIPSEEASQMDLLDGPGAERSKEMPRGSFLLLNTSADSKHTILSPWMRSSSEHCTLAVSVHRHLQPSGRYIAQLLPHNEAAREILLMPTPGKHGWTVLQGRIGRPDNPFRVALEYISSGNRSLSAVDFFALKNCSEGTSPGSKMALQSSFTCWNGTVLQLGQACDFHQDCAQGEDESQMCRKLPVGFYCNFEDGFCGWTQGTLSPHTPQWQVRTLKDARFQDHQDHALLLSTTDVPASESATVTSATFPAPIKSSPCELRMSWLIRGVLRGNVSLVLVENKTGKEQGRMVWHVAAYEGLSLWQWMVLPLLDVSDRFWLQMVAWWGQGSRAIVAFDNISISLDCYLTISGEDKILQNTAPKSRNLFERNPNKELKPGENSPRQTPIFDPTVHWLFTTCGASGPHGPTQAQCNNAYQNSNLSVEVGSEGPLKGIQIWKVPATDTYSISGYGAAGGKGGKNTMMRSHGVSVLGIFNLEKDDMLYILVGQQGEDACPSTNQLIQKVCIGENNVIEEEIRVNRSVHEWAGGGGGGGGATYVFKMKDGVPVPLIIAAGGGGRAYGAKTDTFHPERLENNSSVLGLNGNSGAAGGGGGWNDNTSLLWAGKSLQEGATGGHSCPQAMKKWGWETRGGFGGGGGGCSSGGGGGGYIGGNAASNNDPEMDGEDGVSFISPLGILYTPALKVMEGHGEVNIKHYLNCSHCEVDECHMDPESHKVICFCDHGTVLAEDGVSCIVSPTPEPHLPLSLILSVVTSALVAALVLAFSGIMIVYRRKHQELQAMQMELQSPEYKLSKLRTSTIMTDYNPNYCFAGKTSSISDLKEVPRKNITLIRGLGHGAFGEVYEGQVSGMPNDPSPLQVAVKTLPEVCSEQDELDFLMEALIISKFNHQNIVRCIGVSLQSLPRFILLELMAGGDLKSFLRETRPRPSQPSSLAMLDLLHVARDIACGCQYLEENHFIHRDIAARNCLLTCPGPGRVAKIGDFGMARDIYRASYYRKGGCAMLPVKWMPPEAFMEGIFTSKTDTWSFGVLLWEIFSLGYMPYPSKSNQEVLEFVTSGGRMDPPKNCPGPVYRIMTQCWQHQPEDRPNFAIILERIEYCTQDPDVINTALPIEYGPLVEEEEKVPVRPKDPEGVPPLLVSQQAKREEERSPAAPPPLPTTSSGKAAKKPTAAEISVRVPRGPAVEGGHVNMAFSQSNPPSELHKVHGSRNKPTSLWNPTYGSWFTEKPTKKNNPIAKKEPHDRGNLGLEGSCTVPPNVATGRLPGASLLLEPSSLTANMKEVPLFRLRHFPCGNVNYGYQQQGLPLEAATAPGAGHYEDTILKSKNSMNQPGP
In short: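 TR-FRET read-out (Eu anti-pTyr antibody + streptavidin-APC) of biotin-peptide phosphorylation by recombinant human enzyme; IC50 by sigmoidal fit with top/bottom baselines and Hill slope.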

| Compound | IC50 [1] | IC50 [2] | IC50 (TYK2) | IC50 [3] | ALK % of inhibition at a concentration of 500 nM or 1 mM [4] |
| --- | --- | --- | --- | --- | --- |
| CNC(=O)N1CC[C@H](NC(=O)Nc2ccc3cc2CCc2cccc(c2)Nc2ncc(Cl)c(n2)N3)C1 [Example B169, (3S)-3-[({[6-Chloro-2,4,8,22-tetraazatetracyclo[14.3.1.1(3,7).1(9,13)]docosa-1(20),3(22),4,6,9(21),10,12,16,18-nonaen-12-yl]amino}carbonyl)amino]-N-methylpyrrolidine-1-carboxamide Trifluoracetate] | 3.3 nM | 47 nM | 26 nM | 12 nM | 17% |
| O=C(Nc1ccc2cc1CCc1cccc(c1)Nc1ncc(Cl)c(n1)N2)N[C@H]1CCN(C(=O)c2ccccc2)C1 [Example B170, N-[(3S)-1-Benzoylpyrrolidin-3-yl]-N′-[6-chloro-2,4,8,22-tetraazatetracyclo[14.3.1.1(3,7).1(9,13)]docosa-1(20),3(22),4,6,9(21),10,12,16,18-nonaen-12-yl]urea trifluoroacetate] | 1.6 nM | 228 nM | 34 nM | 17 nM | 12% |
| O=C(Nc1ccc2cc1CCc1cccc(c1)Nc1ncc(Cl)c(n1)N2)N[C@H]1CCN(C(=O)c2cccnc2)C1 [Example B171, N-[6-Chloro-2,4,8,22-tetraazatetracyclo[14.3.1.1(3,7).1(9,13)]docosa-1(20),3(22),4,6,9(21),10,12,16,18-nonaen-12-yl]-N′-[(3S)-1-(pyridin-3-ylcarbonyl)pyrrolidin-3-yl]urea bis(trifluoroacetate)] | 2.8 nM | 51 nM | 30 nM | 12 nM | 15% |
| CS(=O)(=O)N1CC[C@H](NC(=O)Nc2ccc3cc2CCc2cccc(c2)Nc2ncc(Cl)c(n2)N3)C1 [Example B172, N-[6-Chloro-2,4,8,22-tetraazatetracyclo[14.3.1.1(3,7).1(9,13)]docosa-1(20),3(22),4,6,9(21),10,12,16,18-nonaen-12-yl]-N′-[(3S)-1-(methylsulfonyl)pyrrolidin-3-yl]urea trifluoroacetate] | 0.82 nM | 17 nM | 2.6 nM | 1.1 nM | 24% |
| O=C(Nc1ccc2cc1CCc1cccc(c1)Nc1ncc(Cl)c(n1)N2)N[C@H]1CCN(Cc2ccccc2)C1 [Example B173, N-[(3S)-1-Benzylpyrrolidin-3-yl]-N′-[6-chloro-2,4,8,22-tetraazatetracyclo[14.3.1.1(3,7).1(9,13)]docosa-1(20),3(22),4,6,9(21),10,12,16,18-nonaen-12-yl]urea bis(trifluoroacetate)] | 3.5 nM | 163 nM | 55 nM | 23 nM | 14% |
| CC(C)(C)OC(=O)N1CC[C@@H](NC(=O)Nc2ccc3cc2CCc2cccc(c2)Nc2ncc(Cl)c(n2)N3)C1 [Example B174, tert-Butyl (3R)-3-[({[6-chloro-2,4,8,22-tetraazatetracyclo[14.3.1.1(3,7).1(9,13)]docosa-1(20),3(22),4,6,9(21),10,12,16,18-nonaen-12-yl]amino}carbonyl)amino]pyrrolidine-1-carboxylate] | 15 nM | 124 nM | 62 nM | 27 nM | 12% |
| O=C(Nc1ccc2cc1CCc1cccc(c1)Nc1ncc(Cl)c(n1)N2)N[C@@H]1CCNC1 [Example B175, N-[6-Chloro-2,4,8,22-tetraazatetracyclo[14.3.1.1(3,7).1(9,13)]docosa-1(20),3(22),4,6,9(21),10,12,16,18-nonaen-12-yl]-N′-[(3R)-pyrrolidin-3-yl]urea dihydrochloride] | 9 nM | 69 nM | 31 nM | 18 nM | 18% |
| O=C(Nc1ccc2cc1CCc1cccc(c1)Nc1ncc(Cl)c(n1)N2)N[C@@H]1CCN(C(=O)c2ccccc2)C1 [Example B176, N-[(3R)-1-Benzoylpyrrolidin-3-yl]-N′-[6-chloro-2,4,8,22-tetraazatetracyclo[14.3.1.1(3,7).1(9,13)]docosa-1(20),3(22),4,6,9(21),10,12,16,18-nonaen-12-yl]urea trifluoroacetate] | 5.7 nM | 60 nM | 25 nM | 7.8 nM | 19% |
| CC(=O)N1CC[C@@H](NC(=O)Nc2ccc3cc2CCc2cccc(c2)Nc2ncc(Cl)c(n2)N3)C1 [Example B177, N-[(3R)-1-Acetylpyrrolidin-3-yl]-N′-[6-chloro-2,4,8,22-tetraazatetracyclo[14.3.1.1(3,7).1(9,13)]docosa-1(20),3(22),4,6,9(21),10,12,16,18-nonaen-12-yl]urea trifluoroacetate] | 3.1 nM | 46 nM | 39 nM | 5.4 nM | 20% |
| CS(=O)(=O)N1CC[C@@H](NC(=O)Nc2ccc3cc2CCc2cccc(c2)Nc2ncc(Cl)c(n2)N3)C1 [Example B178, N-[6-Chloro-2,4,8,22-tetraazatetracyclo[14.3.1.1(3,7).1(9,13)]docosa-1(20),3(22),4,6,9(21),10,12,16,18-nonaen-12-yl]-N′-[(3R)-1-(methylsulfonyl)pyrrolidin-3-yl]urea trifluoroacetate] | 0.82 nM | 17 nM | 2.6 nM | 1.1 nM | 24% |
| NS(=O)(=O)N1CC[C@@H](NC(=O)Nc2ccc3cc2CCc2cccc(c2)Nc2ncc(Cl)c(n2)N3)C1 [Example B179, (3R)-3-[({[6-Chloro-2,4,8,22-tetraazatetracyclo[14.3.1.1(3,7).1(9,13)]docosa-1(20),3(22),4,6,9(21),10,12,16,18-nonaen-12-yl]amino}carbonyl)amino]pyrrolidine-1-sulfonamide trifluoroacetate] | 0.23 nM | 1.3 nM | 2.8 nM | 0.84 nM | 43% |

Continued, values first:

| IC50 [1] | IC50 [2] | IC50 (TYK2) | IC50 [3] | ALK % of inhibition at a concentration of 500 nM or 1 mM [4] | Compound |
| --- | --- | --- | --- | --- | --- |
| 70 nM | 236 nM | 226 nM | 177 nM | 3.7% | O=C(Nc1ccc2cc1CCc1cccc(c1)Nc1ncc(Cl)c(n1)N2)NC1CCNCC1 [Example B181, N-[6-Chloro-2,4,8,22-tetraazatetracyclo[14.3.1.1(3,7).1(9,13)]docosa-1(20),3(22),4,6,9(21),10,12,16,18-nonaen-12-yl]-N′-piperidin-4-ylurea dihydrochloride] |
| 1.2 nM | 44 nM | 17 nM | 6.2 nM | 29% | CS(=O)(=O)N1CCC(NC(=O)Nc2ccc3cc2CCc2cccc(c2)Nc2ncc(Cl)c(n2)N3)CC1 [Example B182, N-[6-Chloro-2,4,8,22-tetraazatetracyclo[14.3.1.1(3,7).1(9,13)]docosa-1(20),3(22),4,6,9(21),10,12,16,18-nonaen-12-yl]-N′-[1-(methylsulfonyl)piperidin-4-yl]urea trifluoroacetate] |
| 2.1 nM | 14 nM | 7 nM | 1 nM | 26% | NS(=O)(=O)N1CCC(NC(=O)Nc2ccc3cc2CCc2cccc(c2)Nc2ncc(Cl)c(n2)N3)CC1 [Example B183, 4-[({[6-Chloro-2,4,8,22-tetraazatetracyclo[14.3.1.1(3,7).1(9,13)]docosa-1(20),3(22),4,6,9(21),10,12,16,18-nonaen-12-yl]amino}carbonyl)amino]piperidine-1-sulfonamide trifluoroacetate] |
| 0.1 nM | 0.1 nM | 0.14 nM | 0.1 nM | 82% | NS(=O)(=O)Nc1ccc2cc1CCc1cccc(c1)Nc1ncc(Cl)c(n1)N2 [Example B184, N-[6-Chloro-2,4,8,22-tetraazatetracyclo[14.3.1.1(3,7).1(9,13)]docosa-1(20),3(22),4,6,9(21),10,12,16,18-nonaen-12-yl]sulfamide trifluoroacetate] |
| 0.62 nM | 46 nM | 4 nM | 3.9 nM | 12% | CC(C)(C)OC(=O)NCCNC(=O)Nc1ccc2cc1CCc1cccc(c1)Nc1ncc(Cl)c(n1)N2 [Example B185, tert-Butyl {2-[({[6-chloro-2,4,8,22-tetraazatetracyclo[14.3.1.1(3,7).1(9,13)]docosa-1(20),3(22),4,6,9(21),10,12,16,18-nonaen-12-yl]amino}carbonyl)amino]ethyl}carbamate] |
| 0.9 nM | 2.4 nM | 1.9 nM | 0.4 nM | 29% | CS(=O)(=O)NCCNC(=O)Nc1ccc2cc1CCc1cccc(c1)Nc1ncc(Cl)c(n1)N2 [Example B187, N-{2-[({[6-Chloro-2,4,8,22-tetraazatetracyclo[14.3.1.1(3,7).1(9,13)]docosa-1(20),3(22),4,6,9(21),10,12,16,18-nonaen-12-yl]amino}carbonyl)amino]ethyl}methanesulfonamide trifluoroacetate] |
